Legend:
[1] = biological target: T1, phosphorylated EGFR (pEGFR) (Homo sapiens, UniProt P00533); experiment: Detection of phosphorylated EGFR (pEGFR) in EGF-stimulated A431 cells (AlphaLISA); type: cell-based; details: A431 cells (10% FBS), 4 hours incubation, EGF 30 ng/mL for 10 minutes
T1 construct: performed to measure phosphorylated EGFR levels using A431 cells; endogenous in cells; host or cells: A431
Summary of the method: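 Cells in 10% FBS treated with compound 4 h at 37° C., then stimulated 10 min with 30 ng/mL EGF, lysed, and pEGFR measured by AlphaLISA. Inhibition normalized to DMSO and staurosporine controls; IC50 from four-parameter logistic fit.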

[2] = biological target: T2, phosphorylated ERBB2 (pERBB2) (Homo sapiens, UniProt P04626); experiment: Detection of phosphorylated ERBB2 (pERBB2) by ELISA in BT-474 cells; type: cell-based; details: four hour incubation with compound
T2 construct: endogenous in cells; host or cells: BT-474
T2 sequence (P04626 23-1255): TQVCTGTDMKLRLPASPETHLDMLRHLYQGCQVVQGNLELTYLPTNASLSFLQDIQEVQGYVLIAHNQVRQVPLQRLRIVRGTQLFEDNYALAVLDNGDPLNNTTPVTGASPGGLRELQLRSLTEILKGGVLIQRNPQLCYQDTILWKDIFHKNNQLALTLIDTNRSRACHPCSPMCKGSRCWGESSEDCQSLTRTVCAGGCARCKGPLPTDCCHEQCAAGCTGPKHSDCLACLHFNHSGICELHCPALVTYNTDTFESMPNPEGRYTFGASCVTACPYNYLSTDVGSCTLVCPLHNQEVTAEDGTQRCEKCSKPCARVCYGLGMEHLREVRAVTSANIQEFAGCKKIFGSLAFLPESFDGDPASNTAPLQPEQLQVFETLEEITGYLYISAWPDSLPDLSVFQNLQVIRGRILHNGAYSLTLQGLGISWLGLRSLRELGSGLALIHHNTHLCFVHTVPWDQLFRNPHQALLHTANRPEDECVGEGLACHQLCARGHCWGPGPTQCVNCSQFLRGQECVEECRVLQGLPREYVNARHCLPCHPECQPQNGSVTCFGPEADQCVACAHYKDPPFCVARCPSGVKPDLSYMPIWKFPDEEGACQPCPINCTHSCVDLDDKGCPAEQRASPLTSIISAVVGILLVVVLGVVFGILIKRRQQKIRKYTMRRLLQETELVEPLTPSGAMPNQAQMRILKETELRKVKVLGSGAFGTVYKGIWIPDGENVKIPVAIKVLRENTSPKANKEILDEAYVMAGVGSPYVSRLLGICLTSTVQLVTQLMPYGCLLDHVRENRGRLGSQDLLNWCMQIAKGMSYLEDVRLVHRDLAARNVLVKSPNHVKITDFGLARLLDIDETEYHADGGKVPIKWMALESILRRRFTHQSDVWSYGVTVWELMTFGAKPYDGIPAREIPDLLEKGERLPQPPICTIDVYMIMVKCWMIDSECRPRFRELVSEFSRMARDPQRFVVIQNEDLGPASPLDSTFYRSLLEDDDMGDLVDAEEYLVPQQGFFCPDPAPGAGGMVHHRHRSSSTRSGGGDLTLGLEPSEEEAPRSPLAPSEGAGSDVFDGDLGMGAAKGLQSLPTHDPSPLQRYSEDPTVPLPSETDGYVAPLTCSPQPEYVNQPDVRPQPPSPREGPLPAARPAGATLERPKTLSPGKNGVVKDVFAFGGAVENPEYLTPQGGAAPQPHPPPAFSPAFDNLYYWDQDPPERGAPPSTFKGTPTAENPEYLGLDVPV
Summary of the method: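 BT-474 cells treated 4 h at 37 °C, 5% CO2 with four-fold dilutions (10 μM to 0.01 nM final). Lysates analysed by ELISA for pERBB2, TMB read at OD 450 nm. % relative activity normalised to no-cell (low) and 0.1% DMSO-treated (high) controls.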

[3] = biological target: Ba/F3 ERBB2 YVMA (Homo sapiens, UniProt P04626, DUP772-775, cells depend on it); experiment: Cell viability assay (CellTiter Glo) in Ba/F3 cells engineered to express ERBB2 YVMA; type: cell-based, mouse; details: Ba/F3 cells expressing human ERBB2 YVMA mutant, 72 hours, % viability, read-out: Ba/F3 ERBB2 YVMA IC50
Chain of Ba/F3 ERBB2 YVMA (P04626 with tags, fused parts or gaps DUP772-775): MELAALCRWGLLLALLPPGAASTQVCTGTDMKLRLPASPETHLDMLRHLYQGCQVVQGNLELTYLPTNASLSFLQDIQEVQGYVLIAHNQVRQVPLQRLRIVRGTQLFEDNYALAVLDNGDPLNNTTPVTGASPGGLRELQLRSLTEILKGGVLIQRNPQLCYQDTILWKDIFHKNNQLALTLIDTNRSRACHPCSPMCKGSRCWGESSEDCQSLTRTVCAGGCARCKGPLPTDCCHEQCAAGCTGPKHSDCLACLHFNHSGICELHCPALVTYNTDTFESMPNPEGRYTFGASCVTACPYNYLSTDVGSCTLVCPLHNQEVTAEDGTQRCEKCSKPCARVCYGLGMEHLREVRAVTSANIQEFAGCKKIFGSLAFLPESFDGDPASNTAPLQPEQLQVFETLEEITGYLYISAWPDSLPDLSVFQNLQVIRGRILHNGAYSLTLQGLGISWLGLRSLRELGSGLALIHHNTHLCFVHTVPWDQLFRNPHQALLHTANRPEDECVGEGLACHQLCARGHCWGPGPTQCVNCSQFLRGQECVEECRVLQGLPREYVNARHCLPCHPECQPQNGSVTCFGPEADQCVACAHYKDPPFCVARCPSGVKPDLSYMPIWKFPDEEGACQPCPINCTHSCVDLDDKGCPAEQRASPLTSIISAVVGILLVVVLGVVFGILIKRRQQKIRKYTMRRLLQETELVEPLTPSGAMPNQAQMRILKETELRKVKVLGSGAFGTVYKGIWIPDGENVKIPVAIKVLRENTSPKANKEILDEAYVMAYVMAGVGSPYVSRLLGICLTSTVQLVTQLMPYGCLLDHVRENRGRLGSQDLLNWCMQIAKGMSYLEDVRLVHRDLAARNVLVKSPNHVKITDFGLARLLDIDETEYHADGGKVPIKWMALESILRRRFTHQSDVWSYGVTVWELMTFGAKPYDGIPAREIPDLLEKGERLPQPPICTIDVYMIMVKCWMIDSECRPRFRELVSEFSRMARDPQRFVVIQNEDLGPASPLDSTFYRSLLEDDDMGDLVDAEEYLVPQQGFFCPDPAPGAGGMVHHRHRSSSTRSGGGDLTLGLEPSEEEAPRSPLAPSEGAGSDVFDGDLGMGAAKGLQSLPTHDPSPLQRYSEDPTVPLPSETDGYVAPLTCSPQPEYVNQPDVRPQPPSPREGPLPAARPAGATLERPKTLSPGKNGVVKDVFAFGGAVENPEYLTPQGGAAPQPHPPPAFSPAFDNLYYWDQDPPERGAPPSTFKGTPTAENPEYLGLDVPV
Summary of the method: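 IL-3-independent mouse Ba/F3 line stably transduced with human ERBB2 YVMA, seeded at 3000 cells/well, exposed to serially diluted compound (≤0.1% DMSO) for 72 h at 37° C. ATP read by CellTiter Glo luminescence, normalised to DMSO and media-only controls; sigmoidal nonlinear regression fit.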

T1 sequence (P00533 25-1210): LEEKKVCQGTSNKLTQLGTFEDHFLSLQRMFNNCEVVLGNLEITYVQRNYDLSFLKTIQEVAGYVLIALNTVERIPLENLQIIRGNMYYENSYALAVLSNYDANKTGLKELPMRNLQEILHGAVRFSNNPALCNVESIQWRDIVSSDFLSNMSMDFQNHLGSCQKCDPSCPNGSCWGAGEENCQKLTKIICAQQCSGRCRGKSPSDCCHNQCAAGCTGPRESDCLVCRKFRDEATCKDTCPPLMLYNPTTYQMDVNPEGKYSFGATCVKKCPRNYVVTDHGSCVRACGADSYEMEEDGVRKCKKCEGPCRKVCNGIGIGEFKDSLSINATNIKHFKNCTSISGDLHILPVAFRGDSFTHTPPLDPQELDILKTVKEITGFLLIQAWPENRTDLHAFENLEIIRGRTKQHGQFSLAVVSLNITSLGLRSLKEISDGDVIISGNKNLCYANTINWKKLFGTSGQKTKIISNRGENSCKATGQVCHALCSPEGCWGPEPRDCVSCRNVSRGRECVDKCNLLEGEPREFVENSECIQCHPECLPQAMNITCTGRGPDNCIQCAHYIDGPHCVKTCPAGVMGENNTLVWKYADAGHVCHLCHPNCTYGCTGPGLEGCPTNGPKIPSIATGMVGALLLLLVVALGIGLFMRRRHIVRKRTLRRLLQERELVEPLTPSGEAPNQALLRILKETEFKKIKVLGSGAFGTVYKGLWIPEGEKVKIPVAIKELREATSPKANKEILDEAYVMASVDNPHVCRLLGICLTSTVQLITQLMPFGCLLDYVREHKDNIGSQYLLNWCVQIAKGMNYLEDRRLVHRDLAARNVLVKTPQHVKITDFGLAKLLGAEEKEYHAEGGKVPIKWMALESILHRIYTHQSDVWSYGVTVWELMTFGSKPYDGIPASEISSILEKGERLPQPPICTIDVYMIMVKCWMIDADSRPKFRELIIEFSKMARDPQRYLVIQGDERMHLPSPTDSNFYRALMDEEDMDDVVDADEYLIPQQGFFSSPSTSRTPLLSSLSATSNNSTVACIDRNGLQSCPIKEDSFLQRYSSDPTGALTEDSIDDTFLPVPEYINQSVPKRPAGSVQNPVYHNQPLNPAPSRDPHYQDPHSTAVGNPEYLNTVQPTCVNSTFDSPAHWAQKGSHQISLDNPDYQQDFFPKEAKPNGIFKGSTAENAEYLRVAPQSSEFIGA

Row | SMILES | IC50 [1] | IC50 [2] | GI50 [3]
1 | C=CC(=O)N1CCN(c2ncc3ncnc(Nc4ccc(Oc5ccn6ncnc6c5)c(C)c4)c3n2)[C@@H](C)C1 [Compound 70, 1-[(3S)-3-methyl-4-{8-[(3-methyl-4-{[1,2,4]triazolo[1,5-a]pyridin-7-yloxy}phenyl)amino]pyrimido[5,4-d][1,3]diazin-2-yl}piperazin-1-yl]prop-2-en-1-one] | 2320 nM | 16.3 nM | 9.96 nM
2 | CC#CC(=O)N1CCN(c2cc3c(Nc4ccc(Oc5ccc6c(c5)ncn6C)c(C)c4)ncnc3cn2)C[C@H]1C [Compound 71, 1-[(2R)-2-methyl-4-[4-({3-methyl-4-[(1-methyl-1,3-benzodiazol-5-yl)oxy]phenyl}amino)pyrido[3,4-d]pyrimidin-6-yl]piperazin-1-yl]but-2-yn-1-one] | 1020 nM | 22 nM | 20.4 nM
3 | CC#CC(=O)N1CC2CCC(C1)N2c1ccc2ncnc(Nc3ccc(Oc4ccc5c(c4)ncn5C)c(C)c3)c2n1 [Compound 75, 1-(8-(4-((3-methyl-4-((1-methyl-1H-benzo[d]imidazol-5-yl)oxy)phenyl)amino)pyrido[3,2-d]pyrimidin-6-yl)-3,8-diazabicyclo[3.2.1]octan-3-yl)but-2-yn-1-one] | 4060 nM | 42.3 nM | 8.19 nM
4 | C=CC(=O)N1CCN(c2ncc3ncnc(Nc4ccc(Cc5ccc6c(c5)ncn6C)c(C)c4)c3n2)[C@@H](C)C1 [Compound 77, 1-[(3S)-3-methyl-4-[8-({3-methyl-4-[(1-methyl-1,3-benzodiazol-5-yl)methyl]phenyl}amino)-[1,3]diazino[5,4-d]pyrimidin-2-yl]piperazin-1-yl]prop-2-en-1-one] | 3550 nM | 73.4 nM | 16.4 nM
5 | C=CC(=O)N1CCN(c2ccc3ncnc(Nc4ccc(Cc5ccc6c(c5)ncn6C)c(C)c4)c3c2F)C[C@H]1C [Compound 78, 1-[(2R)-4-[5-fluoro-4-({3-methyl-4-[(1-methyl-1,3-benzodiazol-5-yl)methyl]phenyl}amino)quinazolin-6-yl]-2-methylpiperazin-1-yl]prop-2-en-1-one] | 5130 nM | 70.4 nM | 22.6 nM
6 | Cc1cc(Nc2ncnc3ccc(N4CCN(C(=O)/C=C/CN(C)C)[C@H](C)C4)nc23)ccc1Oc1ccc2c(c1)ncn2C [Compound 80, (2E)-4-(dimethylamino)-1-[(2R)-2-methyl-4-[4-({3-methyl-4-[(1-methyl-1,3-benzodiazol-5-yl)oxy]phenyl}amino)pyrido[3,2-d]pyrimidin-6-yl]piperazin-1-yl]but-2-en-1-one] | 2760 nM | 28.8 nM | 11.3 nM
7 | C=CC(=O)N1CCN(c2ccc3ncnc(Nc4ccc(Cc5ccc6c(c5)ncn6C)c(C)c4)c3n2)CC1 [Compound 82, 1-{4-[4-({3-methyl-4-[(1-methyl-1,3-benzodiazol-5-yl)methyl]phenyl}amino)pyrido[3,2-d]pyrimidin-6-yl]piperazin-1-yl}prop-2-en-1-one] | 2090 nM | 54.1 nM | 93.9 nM
8 | C=CC(=O)N1CCN(c2cc3c(Nc4ccc(Cc5ccc6c(c5)ncn6C)c(C)c4)ncnc3cn2)CC1 [Compound 83, 1-{4-[4-({3-methyl-4-[(1-methyl-1,3-benzodiazol-5-yl)methyl]phenyl}amino)pyrido[3,4-d]pyrimidin-6-yl]piperazin-1-yl}prop-2-en-1-one; formic acid] | 1390 nM | 25.5 nM | 12.5 nM
9 | C=CC(=O)N1CCN(c2ncc3ncnc(Nc4ccc(Cc5ccc6c(c5)ncn6C)c(C)c4)c3n2)CC1 [Compound 84, 1-{4-[8-({3-methyl-4-[(1-methyl-1,3-benzodiazol-5-yl)methyl]phenyl}amino)-[1,3]diazino[5,4-d]pyrimidin-2-yl]piperazin-1-yl}prop-2-en-1-one] | > 10000 nM | 25.2 nM | 10.7 nM
10 | C=CC(=O)N1CCN(c2cc3c(Nc4ccc(Cc5ccc6c(c5)ncn6C)c(C)c4)ncnc3cn2)[C@@H](C)C1 [Compound 86, 1-[(3S)-3-methyl-4-[4-({3-methyl-4-[(1-methyl-1,3-benzodiazol-5-yl)methyl]phenyl}amino)pyrido[3,4-d]pyrimidin-6-yl]piperazin-1-yl]prop-2-en-1-one] | 3180 nM | 48.4 nM | 20.5 nM
11 | Cc1cc(Nc2ncnc3ccc(N4CCN(C(=O)/C=C/CN(C)C)CC4)nc23)ccc1Cc1ccn2ncnc2c1 [Compound 87, (E)-1-(4-(4-((4-([1,2,4]triazolo[1,5-a]pyridin-7-ylmethyl)-3-methylphenyl)amino)pyrido[3,2-d]pyrimidin-6-yl)piperazin-1-yl)-4-(dimethylamino)but-2-en-1-one] | 2420 nM | 12.9 nM | 17.3 nM
12 | C=CC(=O)N1CCN(c2ccc3ncnc(Nc4ccc(Oc5ccc6c(c5)ncn6C)c(C)c4)c3c2)CC1 [Compound 88, 1-{4-[4-({3-methyl-4-[(1-methyl-1,3-benzodiazol-5-yl)oxy]phenyl}amino)quinazolin-6-yl]piperazin-1-yl}prop-2-en-1-one] | 729 nM | 16.6 nM | 22 nM
13 | C=CC(=O)N1CCN(c2ccc3ncnc(Nc4ccc(Oc5ccc6c(c5)ncn6C)c(C)c4)c3c2)[C@@H](C)C1 [Compound 89, 1-[(3S)-3-methyl-4-[4-({3-methyl-4-[(1-methyl-1,3-benzodiazol-5-yl)oxy]phenyl}amino)quinazolin-6-yl]piperazin-1-yl]prop-2-en-1-one] | 5380 nM | 19 nM | 152 nM
14 | C=CC(=O)N1CCN(c2ccc3ncnc(Nc4ccc(Oc5ccc(C)nc5)c(C)c4)c3n2)CC1 [Compound 91, 1-(4-(4-(3-methyl-4-(6-methylpyridin-3-yloxy)phenylamino)pyrido[3,2-d]pyrimidin-6-yl)piperazin-1-yl)prop-2-en-1-one] | 329 nM | 21.9 nM | 17.5 nM

Further lines, with some results ahead:

Row | IC50 [1] | IC50 [2] | SMILES | GI50 [3]
15 | 2680 nM | 67.9 nM | CC#CC(=O)N1CCN(c2ncc3ncnc(Nc4ccc(Oc5ccc6c(c5)ncn6C)c(C)c4)c3n2)C[C@H]1C [Compound 72, (R)-1-(2-methyl-4-(8-((3-methyl-4-((1-methyl-1H-benzo[d]imidazol-5-yl)oxy)phenyl)amino)pyrimido[5,4-d]pyrimidin-2-yl)piperazin-1-yl) but-2-yn-1-one] | 10.1 nM
16 | 281 nM | 32.5 nM | C=CC(=O)N1CC2CCC(C1)N2c1ccc2ncnc(Nc3ccc(Oc4ccc5c(c4)ncn5C)c(C)c3)c2n1 [Compound 73, 1-{8-[4-({3-methyl-4-[(1-methyl-1,3-benzodiazol-5-yl)oxy]phenyl}amino)pyrido[3,2-d]pyrimidin-6-yl]-3,8-diazabicyclo[3.2.1]octan-3-yl}prop-2-en-1-one] | 29 nM
17 | 1030 nM | 37.2 nM | C=CC(=O)N1C2CCC1CN(c1ccc3ncnc(Nc4ccc(Oc5ccc6c(c5)ncn6C)c(C)c4)c3n1)C2 [Compound 74, 1-(3-(4-((3-methyl-4-((1-methyl-1H-benzo[d]imidazol-5-yl)oxy)phenyl)amino)pyrido[3,2-d]pyrimidin-6-yl)-3,8-diazabicyclo[3.2.1]octan-8-yl)prop-2-en-1-one] | 27.9 nM
18 | 2000 nM | 24.5 nM | C=CC(=O)N1CCN(c2ncc3ncnc(Nc4ccc(Oc5ccc6c(c5)ncn6C)c(C)c4)c3n2)[C@@H](C)C1 [Compound 76, 1-[(3S)-3-methyl-4-[8-({3-methyl-4-[(1-methyl-1,3-benzodiazol-5-yl)oxy]phenyl}amino)-[1,3]diazino[5,4-d]pyrimidin-2-yl]piperazin-1-yl]prop-2-en-1-one] | 10 nM
19 | > 10000 nM | 1600 nM | C=CC(=O)N1CCN(c2ccc3ncnc(Nc4ccc(Cc5ccn6ncnc6c5)c(C)c4)c3c2F)C(C)C1 (stereo not drawn) [Compound 79, 1-(4-(4-((4-([1,2,4]triazolo[1,5-a]pyridin-7-ylmethyl)-3-methylphenyl)amino)-5-fluoroquinazolin-6-yl)-3-methylpiperazin-1-yl)prop-2-en-1-one] | > 500 nM
20 | 2360 nM | 11 nM | C=CC(=O)N1CCN(c2ccc3ncnc(Nc4ccc(Cc5ccn6ncnc6c5)c(C)c4)c3c2)CC1 [Compound 81, 1-(4-(4-((4-([1,2,4]triazolo[1,5-a]pyridin-7-ylmethyl)-3-methylphenyl)amino)quinazolin-6-yl)piperazin-1-yl)prop-2-en-1-one] | 17.8 nM
21 | > 10000 nM | 47.7 nM | C=CC(=O)N1CCN(c2cc3c(Nc4ccc(Cc5ccn6ncnc6c5)c(C)c4)ncnc3cn2)[C@@H](C)C1 [Compound 85, (S)-1-(4-(4-((4-([1,2,4]triazolo[1,5-a]pyridin-7-ylmethyl)-3-methylphenyl)amino)pyrido[3,4-d]pyrimidin-6-yl)-3-methylpiperazin-1-yl)prop-2-en-1-one] | 69.7 nM
22 | 3230 nM | 14.4 nM | C=CC(=O)N1CCN(c2ccc3ncnc(Nc4ccc(Oc5ccn6ncnc6c5)c(C)c4)c3c2)[C@@H](C)C1 [Compound 90, (S)-1-(4-(4-((4-([1,2,4]triazolo[1,5-a]pyridin-7-yloxy)-3-methylphenyl)amino)quinazolin-6-yl)-3-methylpiperazin-1-yl)prop-2-en-1-one] | 12 nM

— US20250136595A1, “ACYLATED HETEROCYCLIC QUINAZOLINE DERIVATIVES AS INHIBITORS OF ERBB2” (Enliven Inc., priority 2022, published 2025)
